Blank lines part the entries; values can stand above or below the molecule they belong to.
Experiment: Water loss as a function of temperature by TG/DTA (loss on drying, thermal transitions)
Type: physicochemical
Conditions: for Loss On Drying (LOD) (%): total water loss by thermogravimetry, rt-295° C., 10°/min; for LOD (thermal transitions): DTA signals, temperature at which the water is lost
Text: (ii) Thermogravimetric/Differential Thermal Analysis (TG/DTA) […]
The data listed below show the total water loss (LOD by thermogravimetry (TG)) and thermal transitions (DTA signals) show the temperature at which the water is lost.

Structure (SMILES): O=C([O-])C[C@H]1CC[C@H](c2ccc(-c3ccc(Nc4ccc(C(F)(F)F)nc4)cn3)cc2)CC1.[Na+] [Modification B, sodium salt of (4-{4-[5-(6-trifluoromethyl-pyridin-3-ylamino)-pyridin-2-yl]-phenyl}-cyclohexyl)-acetic acid]
- Loss On Drying (LOD) (%) (listed as B): 6.9%

Structure (SMILES): O=C([O-])C[C@H]1CC[C@H](c2ccc(-c3ccc(Nc4ccc(C(F)(F)F)nc4)cn3)cc2)CC1.[Na+] [Modification E, sodium salt of (4-{4-[5-(6-trifluoromethyl-pyridin-3-ylamino)-pyridin-2-yl]-phenyl}-cyclohexyl)-acetic acid]
- Loss On Drying (LOD) (%) (listed as E): 9.5%

Structure (SMILES): O=C([O-])C[C@H]1CC[C@H](c2ccc(-c3ccc(Nc4ccc(C(F)(F)F)nc4)cn3)cc2)CC1.[Na+] [Modification G, sodium salt of (4-{4-[5-(6-trifluoromethyl-pyridin-3-ylamino)-pyridin-2-yl]-phenyl}-cyclohexyl)-acetic acid]
- Loss On Drying (LOD) (%) (listed as G): 11.7%

Structure (SMILES): O=C([O-])C[C@H]1CC[C@H](c2ccc(-c3ccc(Nc4ccc(C(F)(F)F)nc4)cn3)cc2)CC1.[Na+] [Modification H, sodium salt of (4-{4-[5-(6-trifluoromethyl-pyridin-3-ylamino)-pyridin-2-yl]-phenyl}-cyclohexyl)-acetic acid]
- LOD (thermal transitions) (listed as H): 68.3 °C
- Loss On Drying (LOD) (%) (listed as H): 3%

Structure (SMILES): O=C([O-])C[C@H]1CC[C@H](c2ccc(-c3ccc(Nc4ccc(C(F)(F)F)nc4)cn3)cc2)CC1.[Na+] [Modification J, sodium salt of (4-{4-[5-(6-trifluoromethyl-pyridin-3-ylamino)-pyridin-2-yl]-phenyl}-cyclohexyl)-acetic acid]
- Loss On Drying (LOD) (%) (listed as J): 3.1%

Structure (SMILES): O=C([O-])C[C@H]1CC[C@H](c2ccc(-c3ccc(Nc4ccc(C(F)(F)F)nc4)cn3)cc2)CC1.[Na+] [Modification P, sodium salt of (4-{4-[5-(6-trifluoromethyl-pyridin-3-ylamino)-pyridin-2-yl]-phenyl}-cyclohexyl)-acetic acid]
- LOD (thermal transitions) (listed as P): 65 °C
- Loss On Drying (LOD) (%) (listed as P): 10.9%

Further lines, results first:

- LOD (thermal transitions) (listed as D): 84.5 °C
- Loss On Drying (LOD) (%) (listed as D): 12.4%
Structure (SMILES): O=C([O-])C[C@H]1CC[C@H](c2ccc(-c3ccc(Nc4ccc(C(F)(F)F)nc4)cn3)cc2)CC1.[Na+] [Modification D, sodium salt of (4-{4-[5-(6-trifluoromethyl-pyridin-3-ylamino)-pyridin-2-yl]-phenyl}-cyclohexyl)-acetic acid]

- LOD (thermal transitions) (listed as F): 90 °C
- Loss On Drying (LOD) (%) (listed as F): 3.5%
Structure (SMILES): O=C([O-])C[C@H]1CC[C@H](c2ccc(-c3ccc(Nc4ccc(C(F)(F)F)nc4)cn3)cc2)CC1.[Na+] [Modification F, sodium salt of (4-{4-[5-(6-trifluoromethyl-pyridin-3-ylamino)-pyridin-2-yl]-phenyl}-cyclohexyl)-acetic acid]

- Loss On Drying (LOD) (%) (listed as I): 9.5%
Structure (SMILES): O=C([O-])C[C@H]1CC[C@H](c2ccc(-c3ccc(Nc4ccc(C(F)(F)F)nc4)cn3)cc2)CC1.[Na+] [Modification I, sodium salt of (4-{4-[5-(6-trifluoromethyl-pyridin-3-ylamino)-pyridin-2-yl]-phenyl}-cyclohexyl)-acetic acid]

- LOD (thermal transitions) (listed as L): 65 °C
- Loss On Drying (LOD) (%) (listed as L): 14.9%
Structure (SMILES): O=C([O-])C[C@H]1CC[C@H](c2ccc(-c3ccc(Nc4ccc(C(F)(F)F)nc4)cn3)cc2)CC1.[Na+] [Modification L, sodium salt of (4-{4-[5-(6-trifluoromethyl-pyridin-3-ylamino)-pyridin-2-yl]-phenyl}-cyclohexyl)-acetic acid]

— patent publication US8829194B2, “Crystalline forms of the sodium salt of (4-{4-[5-(6-trifluoromethyl-pyridin-3-ylamino)-pyridin-2-yl]-phenyl}-cyclohexyl)-acetic acid” (Novartis AG, priority 2010, dated 2014)
